The results in this text go back to ChEMBL document CHEMBL4837268, “Influence of Linker Attachment Points on the Stability and Neosubstrate Degradation of Cereblon Ligands” (ACS Med Chem Lett, 2021).

Calls of active or inactive are those of the source.

Data set [1] is described as follows: Stability of the compound in acetonitrile/buffer mixture at pH 7.4 assessed as parent compound remaining measured after 24 hrs by HPLC analysis. Format: physicochemical. Conditions: read-out: Stabilty.
For data set [2], the target named is T1, Cereblon/Ikaros (Homo sapiens) (UniProt Q96SW2+Q13422). The data set is described as follows: Protac activity at CRBN/IKZF1 in human MM1.S cells assessed as induction of IKZF1 degradation at 1 uM incubated for 6 hrs relative to control. The data set is classed as cell-based.
Another data set can be described thus: physchem. The conditions noted are these: buffer, pH 7.4.
A short description of data set [3]: Stability in human plasma assessed as half life measured up tp 120 mins by HPLC analysis. The data set is classed as ADME, cell-free.
Another data set deals with MM1.S. The data set is described as follows: Cytotoxicity against human MM1.S cells assessed as effect on cell viability at 0.1 to 10 uM incubated for 72 hrs by luminescence based analysis. Format: functional. Conditions: dose 0.1-10 µM.
Data set [4] has as its target Protein cereblon/Cyclin-dependent kinase 4 (Homo sapiens) (UniProt P11802+Q96SW2). The data set is described as follows: Protac activity at CRBN/CDK4 in human MM1.S cells assessed as protein levels at 1 uM measured after 72 hrs by Western blot analysis relative to control. The data set is classed as cell-based. (A western blot detects proteins with antibodies after separation by electrophoresis.)

Data set [5] addresses T1, Cereblon/Ikaros (Homo sapiens). The data set is described as follows: Protac activity at CRBN/IKZF1 in human MM1.S cells assessed as protein levels at 1 uM measured after 72 hrs by Western blot analysis relative to control. The data set is classed as cell-based.
The target in data set [6] is Protein cereblon/Zinc finger protein Aiolos (Homo sapiens) (UniProt Q96SW2+Q9UKT9). The data set is described as follows: Protac activity at CRBN/IKZF3 in human MM1.S cells assessed as protein levels at 1 uM measured after 72 hrs by Western blot analysis relative to control. Format: cell-based.
The nature of data set [7]: Protac activity at CRBN/IKZF3 in human MM1.S cells assessed as induction of IKZF3 degradation at 0.1 to 1 uM measured after 16 hrs by Western blotting analysis. Conditions: dose 0.1-1 µM.

Sequence of Protein cereblon/Cyclin-dependent kinase 4 (Homo sapiens) (P11802 2-303 limits assumed): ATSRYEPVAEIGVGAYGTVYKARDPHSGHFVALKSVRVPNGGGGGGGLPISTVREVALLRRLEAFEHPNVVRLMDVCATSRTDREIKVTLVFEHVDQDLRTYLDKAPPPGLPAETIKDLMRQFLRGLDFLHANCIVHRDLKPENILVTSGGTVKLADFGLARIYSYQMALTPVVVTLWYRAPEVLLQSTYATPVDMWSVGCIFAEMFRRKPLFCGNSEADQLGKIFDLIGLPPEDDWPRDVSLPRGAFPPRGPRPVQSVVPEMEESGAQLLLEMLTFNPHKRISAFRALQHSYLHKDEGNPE
Sequence of Protein cereblon/Cyclin-dependent kinase 4 (Homo sapiens) (Q96SW2 whole entry partner): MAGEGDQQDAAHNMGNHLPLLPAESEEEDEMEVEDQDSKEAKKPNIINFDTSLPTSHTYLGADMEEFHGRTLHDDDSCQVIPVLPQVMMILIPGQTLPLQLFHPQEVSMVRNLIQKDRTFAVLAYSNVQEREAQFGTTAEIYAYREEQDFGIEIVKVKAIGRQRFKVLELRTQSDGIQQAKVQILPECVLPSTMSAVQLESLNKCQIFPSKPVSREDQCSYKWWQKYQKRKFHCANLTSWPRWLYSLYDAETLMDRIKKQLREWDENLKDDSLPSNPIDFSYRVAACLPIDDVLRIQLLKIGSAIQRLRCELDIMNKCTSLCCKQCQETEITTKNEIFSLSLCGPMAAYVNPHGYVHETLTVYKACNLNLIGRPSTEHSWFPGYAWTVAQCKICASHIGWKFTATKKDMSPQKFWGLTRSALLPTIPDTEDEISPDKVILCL
Sequence of Protein cereblon/Zinc finger protein Aiolos (Homo sapiens) (Q96SW2 whole entry, looked up): as the sequence (Q96SW2 whole entry partner) above
Sequence of Protein cereblon/Zinc finger protein Aiolos (Homo sapiens) (Q9UKT9 whole entry, looked up): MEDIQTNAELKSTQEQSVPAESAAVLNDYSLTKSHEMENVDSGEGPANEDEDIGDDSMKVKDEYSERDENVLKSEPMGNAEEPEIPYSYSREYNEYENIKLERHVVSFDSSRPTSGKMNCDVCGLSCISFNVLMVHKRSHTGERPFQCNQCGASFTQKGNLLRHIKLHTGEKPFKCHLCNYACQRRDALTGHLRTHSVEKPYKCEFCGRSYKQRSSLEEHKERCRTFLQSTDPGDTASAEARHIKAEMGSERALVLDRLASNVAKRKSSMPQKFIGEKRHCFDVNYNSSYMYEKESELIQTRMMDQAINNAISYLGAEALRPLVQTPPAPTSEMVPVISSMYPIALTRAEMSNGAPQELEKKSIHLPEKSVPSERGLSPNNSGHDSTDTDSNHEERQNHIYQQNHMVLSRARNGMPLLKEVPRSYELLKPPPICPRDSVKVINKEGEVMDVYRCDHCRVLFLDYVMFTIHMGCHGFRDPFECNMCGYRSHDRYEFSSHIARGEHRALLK
Description for physchem: Lipophilicity, logD of the compound at pH 7.4 by HPLC analysis

Turning to `O=C1CCC(N2Cc3cc(NC(=O)COCCOCCOCc4ccccc4)ccc3C2=O)C(=O)N1` (centres undefined), in data set [1], the remaining at 24 h came to 73%. For the same compound, in [2], the Activity is 6%. In the data set “physchem”, this compound had a logD of 1.8.
Take `O=C(COc1cccc2c1C(=O)N(C1CCC(=O)NC1=O)C2=O)NCCOCCOCCOCc1ccccc1` (centres undefined): the remaining at 24 h in data set [1] is 17%. Further, the Activity in data set [2] was 0%. Besides, in the data set “physchem”, the logD worked out at 2.
In the case of `O=C1CCC(N2Cc3c(OCCOCCOCCOCc4ccccc4)cccc3C2=O)C(=O)N1` (centres undefined), the remaining at 24 h in [1] is 78%. In addition, the Activity in data set [2] stood at 22%.
Consider `O=C(COCCOCCOCc1ccccc1)NCc1ccc2c(c1)C(=O)N(C1CCC(=O)NC1=O)C2=O` (centres undefined), for which, in data set [1], the remaining at 24 h came to 16%. Moreover, in [2], the Activity turned out to be 0%. In the data set “physchem”, the logD was 1.8.
The matching figures for `O=C1CCC(N2C(=O)c3ccc(NC(=O)COCCOCCOCc4ccccc4)cc3C2=O)C(=O)N1` (centres undefined): 11%, 1% and 2.3.
Take `O=C(CNc1ccc2c(c1)C(=O)N(C1CCC(=O)NC1=O)C2=O)NCCOCCOCCOCc1ccccc1` (centres undefined): the remaining at 24 h in data set [1] amounted to 56%. Further, the Activity in data set [2] is 6%. In addition, in the data set “physchem”, the logD was 1.8.
With `O=C1CCC(N2C(=O)c3ccc(OCCOCCOCCOCc4ccccc4)cc3C2=O)C(=O)N1` (centres undefined), the remaining at 24 h in data set [1] was 30%. Moreover, in data set [2], the Activity is 0%. In data set [3], the half-life is above 2 h. The compound also came in with a pH-dependent lipophilicity (logD) in “physchem” of 2.9.
Consider `CC(=O)c1c(C)c2cnc(Nc3ccc(N4CCN(CC(=O)NCCOCCOCCOCC(=O)NCc5cccc6c5C(=O)N(C5CCC(=O)NC5=O)C6=O)CC4)cn3)nc2n(C2CCCC2)c1=O` (centres undefined), for which the result (in the data set with MM1.S; in data set [7]) was Active. Moreover, the Activity is 68% in data set [4], above 95% in data set [5] and above 95% in data set [6].
Regarding `O=C1c2cccc(OCCOCCOCCOCc3ccccc3)c2C(=O)N1C1CCCCC1`, in data set [1], the remaining at 24 h was 90%.
For the compound `CC(=O)c1c(C)c2cnc(Nc3ccc(N4CCN(CC(=O)NCCOCCOCCOCC(=O)Nc5cccc6c5CN(C5CCC(=O)NC5=O)C6=O)CC4)cn3)nc2n(C2CCCC2)c1=O` (centres undefined), the Activity in data set [4] is 56%; in data set [5] it was above 95%; in data set [6], above 95%. Moreover, in data set [7], the result was inactive.
Turning to `O=C1CCC(N2C(=O)c3ccc(NCCOCCOCCOCc4ccccc4)cc3C2=O)C(=O)N1` (centres undefined), in data set [1], the remaining at 24 h was 70%. Also, the Activity in data set [2] stood at 19%. Moreover, in the data set “physchem”, the logD worked out at 2.6.
For the compound `O=C1CCC(N2C(=O)c3ccc(C(=O)NCCOCCOCCOCc4ccccc4)cc3C2=O)C(=O)N1` (centres undefined), in [1], the remaining at 24 h is 1%. Moreover, the logD in “physchem” came out at 1.9.
Regarding `O=C1CCC(N2C(=O)c3cccc(NC(=O)COCCOCCOCc4ccccc4)c3C2=O)C(=O)N1` (centres undefined), the remaining at 24 h in [1] is 15%. For the same compound, the Activity in data set [2] was 14%. Also, in [3], the half-life is 1.97 h. In “physchem”, the logD was 2.6.
Turning to `O=C1CCC(N2C(=O)c3cccc(C#CCOCCOCCOCc4ccccc4)c3C2=O)C(=O)N1` (centres undefined), in [1], the remaining at 24 h stood at 6%. The same compound had a log distribution coefficient (logD) in “physchem” of 3.2.
Regarding `O=C1CCC(N2C(=O)c3ccc(C#CCOCCOCCOCc4ccccc4)cc3C2=O)C(=O)N1` (centres undefined), the remaining at 24 h in data set [1] stood at 1%. Further, the logD in “physchem” amounted to 3.3.
For `O=C1CCC(N2C(=O)c3cccc(C(=O)NCCOCCOCCOCc4ccccc4)c3C2=O)C(=O)N1` (centres undefined), the remaining at 24 h in [1] was 3%. In “physchem”, this compound showed a logD of 1.9.
Consider `O=C1CCC(N2C(=O)c3cccc(NCCOCCOCCOCc4ccccc4)c3C2=O)C(=O)N1` (centres undefined), for which, in [1], the remaining at 24 h was 80%. For the same compound, the Activity in data set [2] came out at 64%. Besides, the half-life in data set [3] is above 2 h. In addition, in “physchem”, the logD stood at 3.1.
For `O=C(COc1ccc2c(c1)C(=O)N(C1CCC(=O)NC1=O)C2=O)NCCOCCOCCOCc1ccccc1` (centres undefined), in data set [1], the remaining at 24 h is 15%. The Activity in [2] is 0%. The compound also had a logD in the data set “physchem” of 2.
Consider `O=C1CCC(N2C(=O)c3ccccc3C2=O)C(=O)N1CCOCCOCCOCc1ccccc1` (centres undefined), for which, in data set [1], the remaining at 24 h was found to be 19%.
Regarding `O=C(CNc1cccc2c1C(=O)N(C1CCC(=O)NC1=O)C2=O)NCCOCCOCCOCc1ccccc1` (centres undefined), the remaining at 24 h in data set [1] is 68%. Moreover, the Activity in [2] was 29%. Further, the half-life in [3] was above 2 h. Besides, in “physchem”, the logD came to 2.1.
Regarding `O=C1CCC(N2Cc3cc(OCCOCCOCCOCc4ccccc4)ccc3C2=O)C(=O)N1` (centres undefined), the remaining at 24 h in data set [1] turned out to be 73%. Also, the Activity in [2] turned out to be 16%. In addition, the half-life in [3] is above 2 h. In “physchem”, this compound yielded a logD of 2.2.
Regarding `CC(=O)c1c(C)c2cnc(Nc3ccc(N4CCN(CC(=O)NCCOCCOCCOCCNC(=O)COc5cccc6c5C(=O)N(C5CCC(=O)NC5=O)C6=O)CC4)cn3)nc2n(C2CCCC2)c1=O` (centres undefined), the results for the Activity in [4], in [5] and in [6] were 66%, above 95% and above 95%, respectively. Further, the result in data set [7] was inactive.
Take `O=C1CCC(N2Cc3cc(NCCOCCOCCOCc4ccccc4)ccc3C2=O)C(=O)N1` (centres undefined): in data set [1], the remaining at 24 h came out at 79%. Also, the Activity in data set [2] is 0%. In the data set “physchem”, this compound came in with a logD of 2.1.
Consider `CC(=O)c1c(C)c2cnc(Nc3ccc(N4CCN(CC(=O)NCCOCCOCCOCCNc5cccc6c5C(=O)N(C5CCC(=O)NC5=O)C6=O)CC4)cn3)nc2n(C2CCCC2)c1=O` (centres undefined), for which the outcome in the data set on MM1.S was Active. Besides, the Activity came to 26% in [4], 2% in data set [5] and 2% in data set [6].
As for `O=C1CCC(N2C(=O)c3cccc(OCCOCCOCCOCc4ccccc4)c3C2=O)C(=O)N1` (centres undefined), the remaining at 24 h in data set [1] worked out at 46%. The Activity in [2] worked out at 5%. The same compound returned a logD in “physchem” of 2.6.
On to `O=C(COCCOCCOCc1ccccc1)NCc1cccc2c1C(=O)N(C1CCC(=O)NC1=O)C2=O` (centres undefined), for which the remaining at 24 h in data set [1] is 21%. For the same compound, the Activity in data set [2] turned out to be 73%. For the same compound, the half-life in data set [3] was above 2 h. The same compound showed a logD in “physchem” of 2.
For `O=C1NCCCC1N1C(=O)c2cccc(OCCOCCOCCOCc3ccccc3)c2C1=O` (centres undefined), the remaining at 24 h in data set [1] is 99%.
As to `O=C1CCC(N2Cc3c(NC(=O)COCCOCCOCc4ccccc4)cccc3C2=O)C(=O)N1` (centres undefined), the remaining at 24 h in data set [1] was determined as 79%. The Activity in [2] was found to be 0%. Also, the half-life in [3] was determined as 1.45 h. This compound yielded a logD in the data set “physchem” of 1.6.
Take `O=C1CCC(N2Cc3c(NCCOCCOCCOCc4ccccc4)cccc3C2=O)C(=O)N1` (centres undefined): the remaining at 24 h in data set [1] was found to be 74%. Further, the Activity in data set [2] amounted to 5%. The half-life in [3] is above 2 h. Also, the logD in “physchem” amounted to 2.4.

Usually logD stands for lipophilicity at a set pH, counting ionised and neutral species. High values mean higher lipophilicity, low ones lower lipophilicity. Broadly, the half-life is the time needed for the level to fall by half in the phase considered.
